pIC50: −log10 of the molar value.

Consider four compounds from US20250084097A1, “MACROCYCLIC AMIDE COMPOUNDS AND APPLICATION THEREOF” (Medshine Discovery Inc., priority 2021, published 2025).

The test system of assay [1] is Ba/F3-FL-EGFR (del19-E746-A750/T790M/C797S) phosphorylation. The assay is described as follows: Inhibition of EGFR phosphorylation in cells, Western Blot. It is filed as cell-based. Particulars: p-EGFR, 4 h incubation, read-out: Cell half-maximal inhibition concentration IC50 Ba/F3-FL-EGFR (del19-E746-A750/T790M/C797S). The text has this: (§1) Autophosphorylation of EGFR can activate its intracellular kinase pathway. In this assay, EGFR phosphorylation was quantified in order to detect the inhibitory effect of compounds on Ba/F3-FL-EGFR(L858R/T790M/C797S) and Ba/F3-FL-EGFR (del19-E746-A750/T790M/C797S) phosphorylation.
(§2) The cells in the logarithmic growth phase were taken and counted with a cell counter. The cell viability rate was required to be >90%. Cells were inoculated into a sterile 6-well plate with 2×10^6 cells per well, replenished with 1640 complete medium to 1998 μL, and the 6-well plate was incubated in a constant temperature incubator at 37° C. and 5% CO2.
(§3) The 6-well plate was taken out, and the cells were normal under microscope. In an ultra-clean bench, 2 μL of each of the prepared gradient diluted 1000× stock solution was added to the 6-well plate inoculated with cells, and the 6-well plate was gently shaken to distribute the compounds evenly.
(§4) The 6-well plate was incubated statically in a constant temperature incubator at 37° C., 5% CO2 for 4 h;
(§5) After the cells were cultured statically for 4 hours, the culture medium was collected, and centrifuged at 8000 rpm for 3 minutes. The cells were collected in a 1.5 mL EP tube. The supernatant was discarded, and the total protein was extracted;
(§6) Cells from each group were collected into 1.5 ml EP tubes and a certain volume of Lysis Buffer (RIPA:protease/phosphatase inhibitor=100:1) was added (˜66 μL per 2×10^6 cells, depending on the cell amount). After adding Lysis Buffer, the EP tubes were placed on ice quickly and vortexed using a vortexer to fully lyse the cells. Be careful not to vortex for too long, and quickly place the sample tube on ice to lysis, shaking every 10 min for three times. At the end of the lysis time, the EP tubes were centrifuged at 12000 rpm for 10 min in a pre-cooled centrifuge at 4° C. After centrifugation, the supernatant was transferred to new 1.5 ml EP tubes which were labeled.
(§7) Using the BCA Protein Concentration Assay Kit, protein quantification of the sample lysis supernatant was performed according to the kit instructions. After the protein concentration was determined, the lysis supernatant with the lowest concentration was used as the reference, and the rest of the lysis supernatants were diluted to that concentration using Lysis Buffer in a volume calculated according to the BCA standard curve. To the diluted lysis supernatant, the corresponding volume of 5× loading Buffer was added. The diluted solution was heated in a metal bath at 95° C. for 10 min, then placed on ice to be cooled, and stored in a refrigerator at −20° C.
(§8) The glass plates used for making glue were cleaned, and two glass plates were aligned the bottoms, put into the bracket, and fixed with clips. The separation gel according to the 10% separation gel formula was prepared, mixed well and then added to the glass plate. The addition was stopped until the separation gel reached about ¾ of the glass plate and the glue was pressed with 75% ethanol. After 90 minutes, the separation gel was solidified. The 75% ethanol was poured out. Filter paper was used to absorb the remaining ethanol solution on the glass plate. A 5% stacking gel was prepared, mixed evenly and added to the glass plate. Then a spiking comb was inserted. After 60 minutes, the glue was made.
(§9) The gel plate was fixed in an electrophoresis tank, and the inner tank was filled with 1× electrophoresis solution, while in the outer tank the electrophoresis solution was over the metal wire. The spiking comb was removed, the protein samples of Ba/F3-FL-EGFR (L858R/T790M/C797S) and Ba/F3-FL-EGFR (del19-E746-A750/T790M/C797S) cells were sampled 25 μg, and Protein Ladder was then added. Turning on the power supply, electrophoresis with a constant voltage of 70 V lasted for 30 min, electrophoresis was continued at constant voltage 86 V for 1 h 20 min until the bromophenol blue indicator band reached the bottom and electrophoresis was stopped. […]
For orientation: In western blotting, separated proteins are transferred to a membrane and probed.

Assay [2] has as its system Ba/F3-FL-EGFR(L858R/T790M/C797S) phosphorylation. The description is as above. It is filed as cell-based. Particulars: p-EGFR, 4 h incubation, read-out: Cell half-maximal inhibition concentration IC50 Ba/F3-FL-EGFR(L858R/T790M/C797S).
From the text: as §1, §2, §3, §4, §5, §6, §7, §8, §9

With `Cc1cc2cc(n1)-c1cnn(C)c1OCCC[C@@H](C)CN1/C(=N/C2=O)Nc2ccc(N=S(C)(C)=O)cc21` [WX-006], the values for the pIC50 in assay [1] and in assay [2] were 9.22 and 8.47, respectively.
The like results for `Cc1cc2cc(n1)-c1cnn(C)c1OCCC[C@@H](C)CN1/C(=N/C2=O)Nc2ccc(N=S3(=O)CCOCC3)cc21` [WX-013] were, in that order, 8.89 and 8.54.
The like results for `Cc1cc2cc(n1)-c1cnn(C)c1OCCC[C@@H](C)CN1/C(=N/C2=O)Nc2ccc(N=S3(=O)CCCC3)cc21` [WX-010 (trifluoroacetate)] were, in that order, 9.10 and 8.64.
The like results for `Cc1cc2cc(n1)-c1cnn(C)c1OC[C@H]1CC[C@H](C1)CN1/C(=N/C2=O)Nc2ccc(N=S(C)(C)=O)cc21` (single isomer, unassigned) [WX-027A] were, in that order, 8.72 and 8.68.
